In US20070031511A1, “Method of treatment” (priority 2003, published 2007):
Like-named read-outs stand apart in the source and are kept apart here. Where a SMILES comes first, the peptide text is derived from it. Where no end group is shown, it is not given here. [ ]: non-standard residue; d: D form. pGlu = O=C1CC[C@@H](C(=O)O)N1

Columns and labels:
hepatoma cell lines = details: Kicic et al, 2001; cited from earlier work
[1] = test system: HT29 human colorectal carcinoma cells; test: Ggly-stimulated inositol phosphate production in HT29 cells; type: cell-based; details: HT29 cells
Description: (§1) Intracellular inositol phosphate production was determined as described previously (Qian et al, 1993). IMGE-5 cells (10^5 cells/ml) were plated in 24-multiwell culture plates in DMEM supplemented with 10% FBS, 200 IU/ml penicillin and 200 μg/ml streptomycin. 24 h later, cells were incubated with DMEM supplemented with antibiotics and Myo-[2-^3H]inositol (2.5 μCi/well) and shifted to 39° C. for 16 h. Cells were then washed with pre-warmed DMEM and incubated (20-30 minutes, 37° C.) with DMEM supplemented with 20 mM LiCl. Loaded cells were then washed in 1 ml of IP buffer (135 mM NaCl, 20 mM N-(2-hydroxyethyl)piperazine-N′-(2-ethanesulfonic acid), 2 mM CaCl2, 1.2 mM MgSO4, 1 mM ethylene glycol-bis(2-aminoethylether)-N,N,N′,N′-tetraacetic acid, 10 mM LiCl, and 0.5% bovine serum albumin, pH 7.45) and incubated with or without agonist in a final volume of 0.5 ml of IP buffer. After 1-h incubation at 37° C., the reaction was stopped by removing the incubation medium and adding 1 ml of a mixture of ethanol/HCl (2000:1; v/v). One ml of each aliquot was applied to a column containing 1.6 ml of a 1:2 (v/v) Dowex AG-1-X8 anion exchange resin in distilled water. The columns were washed with 4 ml of distilled water, followed by 4 ml of 40 mM HCOONH4, and inositol phosphates were eluted with 4 ml of 1 M HCOONH4. The radioactivity of each eluate was counted after addition of Complete phase combining system solution (Amersham, UK). For the positive control, IMGE-5 cells were incubated with a combination of 30 mM NaF and 10 μM AlCl3 under the same experimental conditions.
Ggly-stimulated inositol phosphate production was measured in HT29 human colorectal carcinoma cells.

CCK-2 receptor [2] = target: T1, CCK-2 receptor (Homo sapiens, UniProt P32239); test: Gamide-stimulated inositol phosphate production in COS-7 cells transfected with the CCK-2 receptor; type: cell-based; parameters: COS-7 cells transiently transfected with CCK-2 receptor cDNA; expressed in transfected cells; host or cells: COS-7; details: for Stimulation of inositol phosphate production: 10 nM peptide
T1 sequence (P32239 1-447): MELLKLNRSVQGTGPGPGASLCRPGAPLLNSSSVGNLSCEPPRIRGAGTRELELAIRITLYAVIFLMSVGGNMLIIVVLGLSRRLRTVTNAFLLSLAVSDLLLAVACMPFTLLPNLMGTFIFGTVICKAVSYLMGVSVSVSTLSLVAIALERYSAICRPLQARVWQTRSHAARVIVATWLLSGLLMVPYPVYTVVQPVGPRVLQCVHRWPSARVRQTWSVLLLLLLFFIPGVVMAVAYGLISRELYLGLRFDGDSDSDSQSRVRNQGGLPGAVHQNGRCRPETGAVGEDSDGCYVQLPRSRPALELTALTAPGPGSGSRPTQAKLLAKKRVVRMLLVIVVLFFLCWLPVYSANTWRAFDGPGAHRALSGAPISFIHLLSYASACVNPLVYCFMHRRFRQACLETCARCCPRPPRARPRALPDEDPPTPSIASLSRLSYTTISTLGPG
Description: as §1
Gamide-stimulated inositol phosphate production was measured in COS-7 cells transfected with the CCK-2 receptor. […] Bismuth ions alone had no effect on inositol phosphate production in CCK-2 receptor-transfected COS-7 cells and HT29 cells, even at the highest concentration tested.
We then investigated the role of the individual glutamates in biological activity. The effects of the mutants GamideE7A and GamideE8,9A on inositol phosphate production in COS-7 cells transiently transfected with the CCK-2 receptor were compared.

CCK-2 receptor [3] = target: T1, CCK-2 receptor; test: [125I]-BH-CCK8 displacement, CCK-2 receptor on Jurkat cells; type: binding; details: for Ratio IC50 mutant/IC50 Gamide: T-lymphoblastoid Jurkat cells; for % Maximum Binding (Jurkat): binding in the absence of competitor, fitted, mean ± S.E.
Description: (§2) Non-specific binding was evaluated with […] of unlabelled CCK8. Incubation was stopped by adding 2 ml of ice-cold PBS containing 2% bovine serum albumin. After centrifugation, supernatants were removed and the radioactivity bound to the cell membranes was measured in a γ-counter (LKB, Wallac, Finland).

CCK-2 receptor [4] = target: T1, CCK-2 receptor; test: [125I]-BH-CCK8 displacement, CCK-2 receptor on transiently transfected COS-7 cells; type: binding; parameters: COS-7 cells transiently transfected with CCK-2 receptor cDNA; expressed in transfected cells; host or cells: COS-7; details: for % Maximum Binding (COS-7): binding in the absence of competitor, fitted, mean ± S.E.; for Predicted ordinate intercept, FIG. 21: single experiment; for Ratio IC50 mutant/IC50 Gamide: transfected COS-7 cells
Description: as §2
The lines of best fit shown in FIG. 21 were obtained by nonlinear regression to a single site model with the program Sigmaplot.

[5] = Quenching of peptide tryptophan fluorescence by ferric ions (stoichiometry, apparent Kd); type: binding; details: pH 4.0; mean ± S.E.; read-out: Kd (μM) of ferric ion binding (amidated gastrin17 and related peptides)
Description: The tryptophan fluorescence of peptide solutions was measured in 3 mL quartz cuvettes thermostated at […], with a Spex Fluorolog-2 spectrofluorimeter (Spex Industries, Edison, N.J.), with the excitation and emission wavelengths set at 290 and 345 nm, respectively. The quenching of tryptophan fluorescence induced by the binding of metal ions was used to calculate the fraction of binding sites occupied, fa: fa=(yf−y)/(yf−yb) where y is the fluorescence signal at a given concentration of metal ions and yb and yf are the signals when the binding sites are fully occupied and unoccupied, respectively (Winzor et al, 1995). The stoichiometry, p, and apparent dissociation constant, Kd, were then obtained, using the program Sigmastat (Jandel Scientific, San Rafael, Calif.), from the intercept and slope of a linear regression of the data transformed as described by Winzor and Sawyer (1995) in terms of the equation Cs/fa=pCa+Kd/(1−fa) where Cs is the total concentration of metal ions, and Ca is the total concentration of glycine-extended gastrin17. For the bismuth binding studies, the data was fitted by non-linear regression with the program Sigmaplot (Jandel Scientific, San Rafael, Calif.) to the equations for models with one binding site or two binding sites with identical affinities: fa=x/(Kd1+x) or to the model with two binding sites with different affinities: fa=(Kd1·x+Kd2·x+2x^2)/2(Kd1·Kd2+Kd1·x+Kd2·x+x^2) where x is the concentration of free metal ions, Kd1 is the first site dissociation constant and Kd2 is the second site dissociation constant. For the one-site model the value of x at any given total concentration of metal ions was obtained by exact solution of the appropriate quadratic (Malby et al, 2001). For the two-site models the value of x was obtained by an iterative Newton-Raphson procedure (Linse et al, 1991). Absorption Spectroscopy
The tryptophan fluorescence of progastrin6-80, glycine-extended gastrin17 and related peptides was measured in the presence of increasing concentrations of ferric ions in 10 mM sodium acetate, pH 4.0, 100 mM NaCl, 0.005% Tween 20. […] Values from the indicated number of independent experiments were combined to obtain the mean values (±S.E.) presented above. No binding of ferric ions to Ggly1-4 or Ggly12-18 was observed.
The tryptophan fluorescence of amidated gastrin17 and related peptides was measured in the presence of increasing concentrations of ferric ions at pH 4.0 (8). Values of the stoichiometry and the apparent dissociation constant (Kd) were obtained from linear transformations of the data presented in FIG. 20A by least squares fitting. Values from the indicated number of independent experiments were combined to obtain the mean values (±S.E.) presented above.

[6] = pH 4.0; Ref. 8 given in table; read-out: Kd (μM), apparent dissociation constant for ferric ions; cited from earlier work
IMGE-5 cells = test: IMGE-5 cell proliferation, MTT assay; type: cell-based, mice
Description: The IMGE-5 cell line was established from the gastric mucosa of mice transgenic for a temperature-sensitive mutant of the SV40 large T antigen (Hollande et al, 2001). IMGE-5 cells were generally grown at 33° C. in DMEM containing 1 unit/ml γ-interferon, 10% FBS, 100 U/ml penicillin, and 100 μg/ml streptomycin (permissive conditions). For all experiments, cells were transferred to 39° C. in the same medium without […] (non-permissive conditions), where they display differentiated characteristics such as expression of functional adherens and tight junctions. All experiments have been performed on cells between passages 20 and 35.
A colorimetric assay was used to measure cell proliferation. Briefly, IMGE-5 cells were seeded in a 96-well plate at a density of 10^4 cells/well in DMEM containing 10% FBS and antibiotics. The following day, cells were synchronized in Go by incubation for 24 h in the same medium lacking FBS. The medium was replaced the next day with fresh medium containing 1% FBS and antibiotics and the peptides under investigation, and incubation was continued for 72 h. 15 μl of 5 mg/ml 3-(4,5-dimethylthiazol-2-yl)-2-5-diphenyltetrazolium bromide (MTT, Sigma, St Louis Mo.) was added per well, and the plate was incubated at 37° C. for 4 h before the medium was discarded. 200 μl 40 mM HCl in isopropanol was added to lyse the cells, and the absorbance at 570 nm was read on a BioRad Model 550 Microplate reader (BioRad, Hercules, Calif.).

## Cc1c(O)c(=O)ccn1C [1,2-dimethyl-3-hydroxypyridin-4-one]
Hepatoma cell lines
  Inhibition of proliferation of hepatoma cell lines in vitro: effective inhibitors

## [F][Al-]([F])([F])[F] [AlF4^−]
[1]
  Increase in inositol phosphate production: 2.6 fold
CCK-2 receptor [2]; COS-7 cells transfected with the CCK-2 receptor, 10 μM AlF4−, 10 nM Gamide
  Increase in inositol phosphate production: 5 fold

## O=C(O)CN(CCN(CC(=O)O)CC(=O)O)CCN(CC(=O)O)CC(=O)O [DTPA, diethylene triamine pentaacetic acid]
Hepatoma cell lines
  Inhibition of proliferation of hepatoma cell lines in vitro: the best inhibitor of all those tested

## O=C(O)CN(CCN(CC(=O)O)CC(=O)O)CC(=O)O [EDTA, ethylene diamine tetraacetic acid]
Hepatoma cell lines
  Inhibition of proliferation of hepatoma cell lines in vitro: ineffective

## CSCC[C@H](NC(=O)[C@H](Cc1c[nH]c2ccccc12)NC(=O)CNC(=O)[C@H](Cc1ccc(O)cc1)NC(=O)[C@H](C)NC(=O)[C@H](CCC(=O)O)NC(=O)[C@H](CCC(=O)O)NC(=O)[C@H](CCC(=O)O)NC(=O)[C@H](C)NC(=O)[C@H](CCC(=O)O)NC(=O)[C@H](CC(C)C)NC(=O)[C@H](Cc1c[nH]c2ccccc12)NC(=O)[C@@H]1CCCN1C(=O)CNC(=O)[C@@H]1CCC(=O)N1)C(=O)N[C@@H](CC(=O)O)C(=O)N[C@@H](Cc1ccccc1)C(N)=O [GamideE7A] ([pGlu]GPWLEAEEEAYGWMDF-NH2)
CCK-2 receptor [3]
  Ratio IC50 mutant/IC50 Gamide: 2.4
  % Maximum Binding (Jurkat): 96.7 ± 4.6%
CCK-2 receptor [4]
  % Maximum Binding (COS-7): 92.0 ± 1.0%
  Predicted ordinate intercept, FIG. 21: 91.6%
  Ratio IC50 mutant/IC50 Gamide: 1.4
CCK-2 receptor [2]
  Stimulation of inositol phosphate production: No significant difference was observed in the extent of stimulation
[5]
  Kd: 0.17 ± 0.03 µM

## CSCC[C@H](NC(=O)[C@H](Cc1c[nH]c2ccccc12)NC(=O)CNC(=O)[C@H](Cc1ccc(O)cc1)NC(=O)[C@H](C)NC(=O)[C@H](CCC(=O)O)NC(=O)[C@H](C)NC(=O)[C@H](C)NC(=O)[C@H](CCC(=O)O)NC(=O)[C@H](CCC(=O)O)NC(=O)[C@H](CC(C)C)NC(=O)[C@H](Cc1c[nH]c2ccccc12)NC(=O)[C@@H]1CCCN1C(=O)CNC(=O)[C@@H]1CCC(=O)N1)C(=O)N[C@@H](CC(=O)O)C(=O)N[C@@H](Cc1ccccc1)C(N)=O [GamideE8, 9A] ([pGlu]GPWLEEAAEAYGWMDF-NH2)
CCK-2 receptor [3]
  Ratio IC50 mutant/IC50 Gamide: 2.2
  % Maximum Binding (Jurkat): 97.8 ± 9.0%
CCK-2 receptor [4]
  % Maximum Binding (COS-7): 98.4 ± 2.1%
  Predicted ordinate intercept, FIG. 21: 91.0%
  Ratio IC50 mutant/IC50 Gamide: 4.1
CCK-2 receptor [2]
  Stimulation of inositol phosphate production: No significant difference was observed in the extent of stimulation
[5]
  Kd: 0.16 ± 0.06 µM

## Cc1ncc(CO)c(C=NNC(=O)c2ccncc2)c1O [pyridoxal isonicotinoyl hydrazone]
Hepatoma cell lines
  Inhibition of proliferation of hepatoma cell lines in vitro: effective inhibitors

## ZGPWLE5A ([pGlu]GPWLEEEEEA; listed as Homo sapiens) [Ggly1-11]
[6]
  Kd: 1.2 ± 0.04 µM
IMGE-5 cells; MTT assay, peptides shown at 1 nM (FIGS. 7A, 8A)
  Stimulation of IMGE-5 cell proliferation: did increase proliferation, but to a significantly lesser extent than Ggly
IMGE-5 cells; cell proliferation or wound healing assays (FIG. 7)
  Reduction of activity relative to Ggly: approximately 50%
